From paper PMC5218480 (PLoS ONE, 2017) come the findings set out here.

This experiment concerns MV-4-11 cells. The experiment is described as follows: Gene expression microarray analysis (Affymetrix PrimeView) and GSEA. The format is cell-based, human. Also on record: RFU PODN (11730768_x_at) / Fold change /veh PODN (11730768_x_at) / RFU LINC00158 (11744669_a_at) / Fold change /veh LINC00158 (11744669_a_at) / RFU DUSP10 (11751237_a_at) / Fold change /veh DUSP10 (11751237_a_at) / RFU ID3 (11757404_x_at) / Fold change /veh ID3 (11757404_x_at) / RFU PLEKHG5 (11737974_s_at) / Fold change /veh PLEKHG5 (11737974_s_at) / RFU LRRC4B (11730491_at) / Fold change /veh LRRC4B (11730491_at) / RFU GIMAP4 (11747438_a_at) / Fold change /veh GIMAP4 (11747438_a_at) / RFU KRT8 (11758183_x_at) / Fold change /veh KRT8 (11758183_x_at) / RFU CNN1 (11734310_a_at) / Fold change /veh CNN1 (11734310_a_at) / RFU VPS37D (11726825_at) / Fold change /veh VPS37D (11726825_at) / RFU C10orf10 (11716522_x_at) / Fold change /veh C10orf10 (11716522_x_at) / RFU KIR2DL2 /// KIR2DL4 /// KIR2DL5A /// KIR2DL5B /// KIR2DS1 /// KIR2DS2 /// KIR2DS3 /// KIR2DS4 /// KIR3DL3 /// KIR3DL3 /// KIR3DS1 (11738374_at) / Fold change /veh KIR2DL2 /// KIR2DL4 /// KIR2DL5A /// KIR2DL5B /// KIR2DS1 /// KIR2DS2 /// KIR2DS3 /// KIR2DS4 /// KIR3DL3 /// KIR3DL3 /// KIR3DS1 (11738374_at) / RFU C1QL1 (11718748_at) / Fold change /veh C1QL1 (11718748_at) / RFU TMPRSS4 (11747572_a_at) / Fold change /veh TMPRSS4 (11747572_a_at) / RFU HAMP (11756126_x_at) / Fold change /veh HAMP (11756126_x_at) / RFU RNFT2 (11725882_a_at) / Fold change /veh RNFT2 (11725882_a_at) / RFU NR4A2 (11747474_a_at) / Fold change /veh NR4A2 (11747474_a_at) / RFU ABCC12 (11746883_a_at) / Fold change /veh ABCC12 (11746883_a_at) / RFU TMEM136 (11760407_x_at) / Fold change /veh TMEM136 (11760407_x_at) / RFU CLDN22 /// WWC2 (11732394_at) / Fold change /veh CLDN22 /// WWC2 (11732394_at) / RFU HLA-DPB1 (11760878_x_at) / Fold change /veh HLA-DPB1 (11760878_x_at) / RFU SPINT1 (11716480_a_at) / Fold change /veh SPINT1 (11716480_a_at) / RFU GAP43 (11754022_s_at) / Fold change /veh GAP43 (11754022_s_at) / RFU A4GNT (11735810_at) / Fold change /veh A4GNT (11735810_at) / RFU PRB3 (11715151_x_at) / Fold change /veh PRB3 (11715151_x_at) / RFU TUBB4B (11761932_at) / Fold change /veh TUBB4B (11761932_at) / RFU CAPN14 (11732068_a_at) / Fold change /veh CAPN14 (11732068_a_at) / RFU TMCC2 (11721928_a_at) / Fold change /veh TMCC2 (11721928_a_at) / RFU IRGQ (11745062_a_at) / Fold change /veh IRGQ (11745062_a_at) / RFU FAM174B (11720279_a_at) / Fold change /veh FAM174B (11720279_a_at) / RFU TMPRSS4 (11748680_a_at) / Fold change /veh TMPRSS4 (11748680_a_at) / RFU FAM212B (11763350_a_at) / Fold change /veh FAM212B (11763350_a_at) / RFU PLEKHG5 (11743358_a_at) / Fold change /veh PLEKHG5 (11743358_a_at) / RFU ZSCAN30 (11745921_a_at) / Fold change /veh ZSCAN30 (11745921_a_at) / RFU CMKLR1 (11741424_a_at) / Fold change /veh CMKLR1 (11741424_a_at) / RFU LOC101060620 /// MAPK8IP1 (11723275_at) / Fold change /veh LOC101060620 /// MAPK8IP1 (11723275_at) / RFU SPTSSB (11747773_x_at) / Fold change /veh SPTSSB (11747773_x_at) / RFU PRSS12 (11739890_at) / Fold change /veh PRSS12 (11739890_at) / RFU BIN1 (11741810_x_at) / Fold change /veh BIN1 (11741810_x_at) / RFU WNT11 (11732464_a_at) / Fold change /veh WNT11 (11732464_a_at) / RFU C10orf10 (11716521_a_at) / Fold change /veh C10orf10 (11716521_a_at) / RFU C5orf56 (11738089_at) / Fold change /veh C5orf56 (11738089_at) / RFU CYB561 (11721691_x_at) / Fold change /veh CYB561 (11721691_x_at) / RFU ANKRD19P (11752326_a_at) / Fold change /veh ANKRD19P (11752326_a_at) / RFU OR2T12 /// OR2T33 /// OR2T8 (11738714_s_at) / Fold change /veh OR2T12 /// OR2T33 /// OR2T8 (11738714_s_at) / RFU VCAN (11748164_a_at) / Fold change /veh VCAN (11748164_a_at) / RFU JSRP1 (11732532_at) / Fold change /veh JSRP1 (11732532_at) / RFU KRTAP10-11 (11738290_x_at) / Fold change /veh KRTAP10-11 (11738290_x_at) / RFU MYO3A (11730013_a_at) / Fold change /veh MYO3A (11730013_a_at) / RFU EBF3 (11725865_a_at) / Fold change /veh EBF3 (11725865_a_at) / RFU CAMK2N1 (11719241_x_at) / Fold change /veh CAMK2N1 (11719241_x_at) / RFU C5orf56 (11738088_a_at) / Fold change /veh C5orf56 (11738088_a_at) / RFU OLFML3 (11715873_a_at) / Fold change /veh OLFML3 (11715873_a_at) / RFU LOC100653217 /// NTM (11731650_a_at) / Fold change /veh LOC100653217 /// NTM (11731650_a_at) / RFU MAPK11 (11762145_a_at) / Fold change /veh MAPK11 (11762145_a_at) / RFU FIZ1 (11724087_x_at) / Fold change /veh FIZ1 (11724087_x_at) / RFU OASL (11726364_x_at) / Fold change /veh OASL (11726364_x_at) / RFU SOX15 (11748057_x_at) / Fold change /veh SOX15 (11748057_x_at) / RFU CD79A (11719716_a_at) / Fold change /veh CD79A (11719716_a_at) / RFU HIST1H1D (11736915_at) / Fold change /veh HIST1H1D (11736915_at) / RFU CASKIN2 (11723855_a_at) / Fold change /veh CASKIN2 (11723855_a_at) / RFU LOC730098 (11760151_x_at) / Fold change /veh LOC730098 (11760151_x_at) / RFU OR4N2 (11742367_at) / Fold change /veh OR4N2 (11742367_at) / RFU PRRT2 (11749266_a_at) / Fold change /veh PRRT2 (11749266_a_at) / RFU SNX32 (11753110_a_at) / Fold change /veh SNX32 (11753110_a_at) / RFU CDHR5 (11726645_a_at) / Fold change /veh CDHR5 (11726645_a_at) / RFU RCAN1 (11760418_a_at) / Fold change /veh RCAN1 (11760418_a_at) / RFU FAM167A (11723789_a_at) / Fold change /veh FAM167A (11723789_a_at) / RFU FAM26E (11764081_at) / Fold change /veh FAM26E (11764081_at) / RFU ISYNA1 (11749810_s_at) / Fold change /veh ISYNA1 (11749810_s_at) / RFU ACY1 (11761880_at) / Fold change /veh ACY1 (11761880_at) / RFU 11764098_at / Fold change /veh 11764098_at / RFU SAMD14 (11745864_x_at) / Fold change /veh SAMD14 (11745864_x_at) / RFU NPB (11741838_a_at) / Fold change /veh NPB (11741838_a_at) / RFU TMPRSS6 (11731388_a_at) / Fold change /veh TMPRSS6 (11731388_a_at) / RFU KRTAP10-2 (11738614_at) / Fold change /veh KRTAP10-2 (11738614_at) / RFU ARHGAP8 /// PRR5-ARHGAP8 (11727945_x_at) / Fold change /veh ARHGAP8 /// PRR5-ARHGAP8 (11727945_x_at) / RFU KRTAP5-7 /// NADSYN1 (11734609_at) / Fold change /veh KRTAP5-7 /// NADSYN1 (11734609_at) / RFU RASL12 (11751679_a_at) / Fold change /veh RASL12 (11751679_a_at) / RFU CDKN2B (11736163_a_at) / Fold change /veh CDKN2B (11736163_a_at) / RFU PRF1 (11729649_at) / Fold change /veh PRF1 (11729649_at) / RFU, ZNF638 /// ZNF638-IT1 / Fold change vs veh, ZNF638 /// ZNF638-IT1 / RFU, PANK3 / Fold change vs veh, PANK3 / RFU, SH3YL1 / Fold change vs veh, SH3YL1 / RFU, ZEB2 / Fold change vs veh, ZEB2 / RFU, NRIP1 / Fold change vs veh, NRIP1 / RFU, PTTG1IP / Fold change vs veh, PTTG1IP / RFU, CAPN2 / Fold change vs veh, CAPN2 / RFU, MED14 / Fold change vs veh, MED14 / RFU, SNORA58 / Fold change vs veh, SNORA58 / RFU, C1orf63 / Fold change vs veh, C1orf63 / RFU, LRRFIP1 / Fold change vs veh, LRRFIP1 / RFU, NDUFAF7 / Fold change vs veh, NDUFAF7 / RFU, SLC12A2 / Fold change vs veh, SLC12A2 / RFU, IBTK / Fold change vs veh, IBTK / RFU, ESF1 / Fold change vs veh, ESF1 / Fold change vs veh, TMEM50B / RFU, TAOK1 / Fold change vs veh, TAOK1 / RFU, ACBD3 / Fold change vs veh, ACBD3 / RFU, TMA16 / Fold change vs veh, TMA16 / RFU, RWDD3 / Fold change vs veh, RWDD3 / RFU, BCAT1 / Fold change vs veh, BCAT1 / RFU, EDEM3 / Fold change vs veh, EDEM3 / RFU, TMEM33 / Fold change vs veh, TMEM33 / RFU, WDR75 / Fold change vs veh, WDR75 / RFU, AHCTF1 / Fold change vs veh, AHCTF1 / RFU, TFRC / Fold change vs veh, TFRC / RFU, ZDHHC17 / Fold change vs veh, ZDHHC17 / RFU, NOM1 / Fold change vs veh, NOM1 / RFU, ARL8B / Fold change vs veh, ARL8B / RFU, ZBTB11 / Fold change vs veh, ZBTB11 / RFU, TAMM41 / Fold change vs veh, TAMM41 / RFU, KIAA1704 /// LOC100996395 / Fold change vs veh, KIAA1704 /// LOC100996395 / RFU, ING1 / Fold change vs veh, ING1 / RFU, TRMT61B / Fold change vs veh, TRMT61B / RFU, FUBP3 / Fold change vs veh, FUBP3 / RFU, TP53 / Fold change vs veh, TP53 / RFU, TNKS2 / Fold change vs veh, TNKS2 / RFU, ZFP14 / Fold change vs veh, ZFP14 / RFU, ACTR2 / Fold change vs veh, ACTR2 / RFU, PPP3R1 / Fold change vs veh, PPP3R1 / RFU, PIK3R1 / Fold change vs veh, PIK3R1 / RFU, HNRNPA1 / Fold change vs veh, HNRNPA1 / RFU, RNF170 / Fold change vs veh, RNF170 / RFU, ZNF28 / Fold change vs veh, ZNF28 / RFU, RNGTT / Fold change vs veh, RNGTT / RFU, OGT / Fold change vs veh, OGT / RFU, BRD1 / Fold change vs veh, BRD1 / RFU, MARS / Fold change vs veh, MARS / RFU, ZNF655 / Fold change vs veh, ZNF655 / RFU, FAHD1 / Fold change vs veh, FAHD1 / RFU, BDP1 / Fold change vs veh, BDP1 / RFU, LRRCC1 / Fold change vs veh, LRRCC1 / RFU, ARID1A / Fold change vs veh, ARID1A / RFU, ZNF146 / Fold change vs veh, ZNF146 / RFU, ZNF330 / Fold change vs veh, ZNF330 / RFU, GPN3 / Fold change vs veh, GPN3 / RFU, C9orf123 / Fold change vs veh, C9orf123 / RFU, N4BP2L2 / Fold change vs veh, N4BP2L2 / RFU, ARFIP1 / Fold change vs veh, ARFIP1 / RFU, FAM179B / Fold change vs veh, FAM179B / RFU, BCL10 / Fold change vs veh, BCL10 / RFU, UHRF1BP1L / Fold change vs veh, UHRF1BP1L / RFU, BET1 / Fold change vs veh, BET1 / RFU, CNOT2 / Fold change vs veh, CNOT2 / RFU, ZNF268 / Fold change vs veh, ZNF268 / Fold change vs veh, ZNF507 / RFU, DGCR2 / Fold change vs veh, DGCR2 / RFU, WDSUB1 / Fold change vs veh, WDSUB1 / Fold change vs veh, HSP90B1 /// MIR3652 / RFU, ADSS / Fold change vs veh, ADSS / RFU, GK / Fold change vs veh, GK / RFU, ZNF148 / Fold change vs veh, ZNF148 / RFU, TAF9 / Fold change vs veh, TAF9 / RFU, SLC1A5 / Fold change vs veh, SLC1A5 / RFU, SLMO2 / Fold change vs veh, SLMO2 / RFU, ABCC4 / Fold change vs veh, ABCC4 / RFU, LOC101060439 /// RAP1B / Fold change vs veh, LOC101060439 /// RAP1B / RFU, RFX7 / Fold change vs veh, RFX7 / RFU, GTPBP10 / Fold change vs veh, GTPBP10 / RFU, CNEP1R1 / Fold change vs veh, CNEP1R1 / RFU, BIVM-ERCC5 /// ERCC5 / Fold change vs veh, BIVM-ERCC5 /// ERCC5 / RFU, ILF3 / Fold change vs veh, ILF3 / RFU 11762660_at / Fold change /veh 11762660_at / RFU VCAN (11757783_s_at) / Fold change /veh VCAN (11757783_s_at) / RFU DDX43 (11728927_at) / Fold change /veh DDX43 (11728927_at) / RFU KRT8 (11758188_x_at) / Fold change /veh KRT8 (11758188_x_at) / RFU NKD1 (11759106_at) / Fold change /veh NKD1 (11759106_at) / RFU SRD5A1 (11742802_a_at) / Fold change /veh SRD5A1 (11742802_a_at) / RFU TPSAB1 /// TPSB2 (11721975_s_at) / Fold change /veh TPSAB1 /// TPSB2 (11721975_s_at) / RFU GSTM3 (11746129_a_at) / Fold change /veh GSTM3 (11746129_a_at) / RFU IL23R (11737362_x_at) / Fold change /veh IL23R (11737362_x_at) / RFU TMEM51 (11727254_a_at) / Fold change /veh TMEM51 (11727254_a_at) / RFU PIWIL2 (11732686_x_at) / Fold change /veh PIWIL2 (11732686_x_at) / RFU ORM1 (11744905_x_at) / Fold change /veh ORM1 (11744905_x_at) / RFU CCDC152 (11743942_at) / Fold change /veh CCDC152 (11743942_at) / RFU ECM1 (11717891_a_at) / Fold change /veh ECM1 (11717891_a_at) / RFU IL23R (11748794_a_at) / Fold change /veh IL23R (11748794_a_at) / RFU TNFAIP8L3 (11732012_x_at) / Fold change /veh TNFAIP8L3 (11732012_x_at) / RFU MBOAT4 (11741988_at) / Fold change /veh MBOAT4 (11741988_at) / RFU 11764193_at / Fold change /veh 11764193_at / RFU TMEM53 (11763286_at) / Fold change /veh TMEM53 (11763286_at) / RFU MAGEB2 (11727129_at) / Fold change /veh MAGEB2 (11727129_at) / RFU TMEM200A (11744735_a_at) / Fold change /veh TMEM200A (11744735_a_at) / RFU CCDC152 (11751479_a_at) / Fold change /veh CCDC152 (11751479_a_at) / RFU FAM211A (11726209_a_at) / Fold change /veh FAM211A (11726209_a_at) / RFU RGS16 (11746705_a_at) / Fold change /veh RGS16 (11746705_a_at) / RFU VCAN (11755009_s_at) / Fold change /veh VCAN (11755009_s_at) / RFU RHOB (11743442_s_at) / Fold change /veh RHOB (11743442_s_at) / RFU RGS16 (11720943_a_at) / Fold change /veh RGS16 (11720943_a_at) / RFU RGS16 (11720944_at) / Fold change /veh RGS16 (11720944_at) / RFU, VPS4B / Fold change vs veh, VPS4B / RFU, CREB1 / Fold change vs veh, CREB1 / RFU, DNAJC13 / Fold change vs veh, DNAJC13 / RFU, GNAQ / Fold change vs veh, GNAQ / RFU, CDK5R1 / Fold change vs veh, CDK5R1 / RFU, ZRANB3 / Fold change vs veh, ZRANB3 / RFU, CUL4A / Fold change vs veh, CUL4A / RFU, CCNY / Fold change vs veh, CCNY / RFU, UFL1 / Fold change vs veh, UFL1 / RFU, COG3 / Fold change vs veh, COG3 / RFU, DIAPH2 / Fold change vs veh, DIAPH2 / RFU, SKA2 / Fold change vs veh, SKA2 / RFU, AFF3 / Fold change vs veh, AFF3 / RFU, LMF1 / Fold change vs veh, LMF1 / RFU, IPO11 / Fold change vs veh, IPO11 / RFU, DFFB / Fold change vs veh, DFFB / RFU, FOXP1 / Fold change vs veh, FOXP1 / RFU, CARD8 / Fold change vs veh, CARD8 / RFU, STRN3 / Fold change vs veh, STRN3 / RFU, ADK / Fold change vs veh, ADK / RFU, RASSF2 / Fold change vs veh, RASSF2 / RFU, WIPF1 / Fold change vs veh, WIPF1 / RFU, LARP1B / Fold change vs veh, LARP1B / RFU, RASA1 / Fold change vs veh, RASA1 / RFU, RB1 / Fold change vs veh, RB1 / RFU, PPFIA1 / Fold change vs veh, PPFIA1 / RFU, MAT2A / Fold change vs veh, MAT2A / RFU, CCT5 / Fold change vs veh, CCT5 / RFU, WDR92 / Fold change vs veh, WDR92 / RFU, CUX1 / Fold change vs veh, CUX1 / RFU, TTC7A / Fold change vs veh, TTC7A / RFU, TMEM135 / Fold change vs veh, TMEM135 / RFU, DEPTOR / Fold change vs veh, DEPTOR / RFU, CPM / Fold change vs veh, CPM / RFU, DNAJB6 / Fold change vs veh, DNAJB6 / RFU, CACNA2D3 / Fold change vs veh, CACNA2D3 / RFU, DTX4 / Fold change vs veh, DTX4 / RFU, TFCP2 / Fold change vs veh, TFCP2 / RFU, GMCL1 /// GMCL1P1 / Fold change vs veh, GMCL1 /// GMCL1P1 / RFU, AEBP2 / Fold change vs veh, AEBP2 / RFU, SNHG1 /// SNORD22 /// SNORD25 /// SNORD26 /// SNORD27 /// SNORD28 /// SNORD29 /// SNORD31 / Fold change vs veh, SNHG1 /// SNORD22 /// SNORD25 /// SNORD26 /// SNORD27 /// SNORD28 /// SNORD29 /// SNORD31 / Fold change (Aza/veh), C12orf56 (ProbeSet 11735607_a_at) / Fold change (ACY-1035/veh), C12orf56 (ProbeSet 11735607_a_at) / Fold change (Aza/veh), FGFR1OP (ProbeSet 11751329_s_at) / Fold change (ACY-1035/veh), FGFR1OP (ProbeSet 11751329_s_at) / Fold change (Aza/veh), VPS36 (ProbeSet 11739960_a_at) / Fold change (ACY-1035/veh), VPS36 (ProbeSet 11739960_a_at) / RFU SYPL1 (11715823_x_at) / Fold change /veh SYPL1 (11715823_x_at) / RFU IGFBP7 (11715501_s_at) / Fold change /veh IGFBP7 (11715501_s_at) / RFU REEP3 (11722064_at) / Fold change /veh REEP3 (11722064_at) / RFU IGLL1 (11728026_x_at) / Fold change /veh IGLL1 (11728026_x_at): dose or concentration left out as unconfirmed. To be noted: MV-4-11 cells, 48 hours.

For `Nc1ncn([C@@H]2O[C@H](CO)[C@@H](O)[C@H]2O)c(=O)n1` [azacitidine], the “RFU CCDC152 (11743942_at)” value stood at 8.41 RFU.
